# Tests used:
# Experiment in all cases: cells
# D-247MG = type: functional, cell-based; conditions: Homo sapiens
# Description: SANGER: Inhibition of human D-247MG cell growth in a cell viability assay.
# D283 Med = type: functional, cell-based, Homo sapiens; conditions: Homo sapiens, D283 Med
# Description: SANGER: Inhibition of human D-283MED cell growth in a cell viability assay.
# DSH1 = type: functional, cell-based; conditions: Homo sapiens;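 also: growth inhibition of human DSH1 cells, measured with a cell viability readout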
# Description: SANGER: Inhibition of human DSH1 cell growth in a cell viability assay.
# DU-4475 = type: functional, cell-based, Homo sapiens; conditions: Homo sapiens, DU-4475
# Description: SANGER: Inhibition of human DU-4475 cell growth in a cell viability assay.
# ES4 = type: functional, cell-based, Homo sapiens; conditions: Homo sapiens, ES4;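 also: growth inhibition of human ES4 cells, read out by a cell viability assay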
# Description: SANGER: Inhibition of human ES4 cell growth in a cell viability assay.
# ES5 = type: functional, cell-based, Homo sapiens; conditions: Homo sapiens, ES5;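 also: growth inhibition of human ES5 cells, read out by a cell viability assay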
# Description: SANGER: Inhibition of human ES5 cell growth in a cell viability assay.
# ETK-1 = type: functional, cell-based, Homo sapiens; conditions: Homo sapiens, ETK-1;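 also: growth inhibition of human ETK-1 cells, read out with a cell viability assay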
# Description: SANGER: Inhibition of human ETK-1 cell growth in a cell viability assay.
# EW-11 = type: functional, cell-based, Homo sapiens; conditions: Homo sapiens, EW-11;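 also: growth inhibition of human EW-11 cells, measured with a cell viability assay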
# Description: SANGER: Inhibition of human EW-11 cell growth in a cell viability assay.
# GAK = type: functional, cell-based, Homo sapiens; conditions: Homo sapiens, GAK;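 also: cell growth inhibition read out by a cell viability assay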
# Description: SANGER: Inhibition of human GAK cell growth in a cell viability assay.
# GT3TKB = type: functional, cell-based, Homo sapiens; conditions: Homo sapiens, GT3TKB;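 also: growth inhibition of the cell line, read out with a cell viability assay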
# Description: SANGER: Inhibition of human GT3TKB cell growth in a cell viability assay.
# HD-MY-Z = type: functional, cell-based, Homo sapiens; conditions: Homo sapiens, HD-MY-Z;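 also: growth inhibition of HD-MY-Z cells, read out with a cell viability assay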
# Description: SANGER: Inhibition of human HD-MY-Z cell growth in a cell viability assay.
# HL-60 = type: functional, cell-based, Homo sapiens; conditions: Homo sapiens, HL-60;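 also: growth inhibition of human HL-60 cells, read out with a cell viability assay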
# Description: SANGER: Inhibition of human HL-60 cell growth in a cell viability assay.
# HOP-62 = type: functional, cell-based, Homo sapiens; conditions: Homo sapiens, HOP-62;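 also: cell growth inhibition determined with a viability assay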
# Description: SANGER: Inhibition of human HOP-62 cell growth in a cell viability assay.
# HT-144 = type: functional, cell-based, Homo sapiens; conditions: Homo sapiens, HT-144
# Description: SANGER: Inhibition of human HT-144 cell growth in a cell viability assay.
# IST-MEL1 = type: functional, cell-based, Homo sapiens; conditions: Homo sapiens, IST-MEL1;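 also: growth inhibition of the cell line, read out with a cell viability assay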
# Description: SANGER: Inhibition of human IST-MEL1 cell growth in a cell viability assay.
# JAR = type: functional, cell-based, Homo sapiens; conditions: Homo sapiens, JAR;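 also: growth inhibition of human JAR cells determined with a cell viability assay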
# Description: SANGER: Inhibition of human JAR cell growth in a cell viability assay.
# KP-N-YS = type: functional, cell-based, Homo sapiens; conditions: Homo sapiens, KP-N-YS;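 also: cell viability assay measuring inhibition of cell line growth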
# Description: SANGER: Inhibition of human KP-N-YS cell growth in a cell viability assay.
# KS-1 = type: functional, cell-based; conditions: Homo sapiens;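 also: growth inhibition of KS-1 cells, read out with a cell viability assay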
# Description: SANGER: Inhibition of human KS-1 cell growth in a cell viability assay.
# LB771-HNC = type: functional, cell-based; conditions: Homo sapiens;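 also: growth inhibition of LB771-HNC human cells, read out with a cell viability assay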
# Description: SANGER: Inhibition of human LB771-HNC cell growth in a cell viability assay.
# LNCaP-Clone-FGC = type: functional, cell-based, Homo sapiens; conditions: Homo sapiens, LNCaP-Clone-FGC
# Description: SANGER: Inhibition of human LNCaP-Clone-FGC cell growth in a cell viability assay.
# LS-411N = type: functional, cell-based, Homo sapiens; conditions: Homo sapiens, LS-411N
# MC116 = type: functional, cell-based, Homo sapiens; conditions: Homo sapiens, MC116;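 also: growth inhibition of MC116 cells, read out with a cell viability assay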
# Description: SANGER: Inhibition of human MC116 cell growth in a cell viability assay.
# MEG-01 = type: functional, cell-based, Homo sapiens; conditions: Homo sapiens, MEG-01;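 also: growth inhibition of MEG-01 cells, read out by a cell viability assay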
# Description: SANGER: Inhibition of human MEG-01 cell growth in a cell viability assay.
# MHH-PREB-1 = type: functional, cell-based, Homo sapiens; conditions: Homo sapiens, MHH-PREB-1;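 also: cell viability assay measuring inhibition of proliferation of human MHH-PREB-1 cells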
# Description: SANGER: Inhibition of human MHH-PREB-1 cell growth in a cell viability assay.
# MLMA = type: functional, cell-based, Homo sapiens; conditions: Homo sapiens, MLMA;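 also: growth inhibition of MLMA cells (human), determined through a cell viability readout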
# Description: SANGER: Inhibition of human MLMA cell growth in a cell viability assay.
# MMAC-SF = type: functional, cell-based; conditions: Homo sapiens;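 also: growth inhibition of human MMAC-SF cells, read out with a cell viability assay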
# Description: SANGER: Inhibition of human MMAC-SF cell growth in a cell viability assay.
# NB13 = type: functional, cell-based, Homo sapiens; conditions: Homo sapiens, NB13;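 also: cell viability readout measuring growth inhibition of human NB13 cells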
# Description: SANGER: Inhibition of human NB13 cell growth in a cell viability assay.
# NCI-H209 = type: functional, cell-based, Homo sapiens; conditions: Homo sapiens, NCI-H209;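 also: growth inhibition of human NCI-H209 cells, measured by a cell viability assay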
# Description: SANGER: Inhibition of human NCI-H209 cell growth in a cell viability assay.
# NCI-N87 = type: functional, cell-based; conditions: Homo sapiens;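 also: growth inhibition of human NCI-N87 cells, read out with a cell viability assay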
# Description: SANGER: Inhibition of human NCI-N87 cell growth in a cell viability assay.
# NOMO-1 = type: functional, cell-based, Homo sapiens; conditions: Homo sapiens, NOMO-1;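 also: growth inhibition of human NOMO-1 cells measured by a cell viability assay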
# Description: SANGER: Inhibition of human NOMO-1 cell growth in a cell viability assay.
# OCUB-M = type: functional, cell-based; conditions: Homo sapiens;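 also: growth inhibition of the cancer cell line, read out through a cell viability assay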
# Description: SANGER: Inhibition of human OCUB-M cell growth in a cell viability assay.
# PSN1 = type: functional, cell-based, Homo sapiens; conditions: Homo sapiens, PSN1;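 also: suppression of growth of human PSN1 cells, read out by a cell viability assay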
# Description: SANGER: Inhibition of human PSN1 cell growth in a cell viability assay.
# RPMI-8226 = type: functional, cell-based, Homo sapiens; conditions: Homo sapiens, RPMI-8226
# Description: SANGER: Inhibition of human RPMI-8226 cell growth in a cell viability assay.
# SCH = type: functional, cell-based, Homo sapiens; conditions: Homo sapiens, SCH;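 also: growth inhibition of human SCH cells, read out in a cell viability assay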
# Description: SANGER: Inhibition of human SCH cell growth in a cell viability assay.
# SJSA-1 = type: functional, cell-based, Homo sapiens; conditions: Homo sapiens, SJSA-1;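 also: growth inhibition of human SJSA-1 cells, read out through a cell viability measurement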
# Description: SANGER: Inhibition of human SJSA-1 cell growth in a cell viability assay.
# SK-PN-DW = type: functional, cell-based, Homo sapiens; conditions: Homo sapiens, SK-PN-DW;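 also: growth inhibition measured with a viability assay on these cells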
# Description: SANGER: Inhibition of human SK-PN-DW cell growth in a cell viability assay.
# SNB-75 = type: functional, cell-based, Homo sapiens; conditions: Homo sapiens, SNB-75;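 also: cell viability assay measuring growth inhibition of human SNB-75 cells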
# Description: SANGER: Inhibition of human SNB75 cell growth in a cell viability assay.
# SW 962 = type: functional, cell-based, Homo sapiens; conditions: Homo sapiens, SW 962;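 also: growth inhibition of human SW962 cells, read out by a cell viability assay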
# Description: SANGER: Inhibition of human SW962 cell growth in a cell viability assay.
# TE-1 = type: functional, cell-based, Homo sapiens; conditions: Homo sapiens, TE-1;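 also: growth inhibition of the human TE-1 cell line, read out with a cell viability assay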
# Description: SANGER: Inhibition of human TE-1 cell growth in a cell viability assay.
# 8-MG-BA = type: functional, cell-based, Homo sapiens; conditions: Homo sapiens, 8-MG-BA;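 also: growth inhibition of 8-MG-BA cells, read out with a cell viability assay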
# Description: SANGER: Inhibition of human 8-MG-BA cell growth in a cell viability assay.
# A3-KAW = type: functional, cell-based, Homo sapiens; conditions: Homo sapiens, A3-KAW;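 also: growth inhibition of human A3-KAW cells, read out with a cell viability assay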
# Description: SANGER: Inhibition of human A3-KAW cell growth in a cell viability assay.
# A498 = type: functional, cell-based, Homo sapiens; conditions: Homo sapiens, A498;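 also: growth inhibition of human A498 cells, read out with a cell viability assay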
# Description: SANGER: Inhibition of human A498 cell growth in a cell viability assay.
# A704 = type: functional, cell-based; conditions: Homo sapiens;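 also: growth inhibition of human A704 cells, read out with a cell viability assay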
# Description: SANGER: Inhibition of human A704 cell growth in a cell viability assay.
# BB30-HNC = type: functional, cell-based, Homo sapiens; conditions: Homo sapiens, BB30-HNC;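 also: growth inhibition of the cultured cell line, read out by a cell viability assay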
# Description: SANGER: Inhibition of human BB30-HNC cell growth in a cell viability assay.
# BB49-HNC = type: functional, cell-based, Homo sapiens; conditions: Homo sapiens, BB49-HNC;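 also: cell viability assay read-out, reported as inhibition of BB49-HNC cell growth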
# Description: SANGER: Inhibition of human BB49-HNC cell growth in a cell viability assay.
# BB65-RCC = type: functional, cell-based, Homo sapiens; conditions: Homo sapiens, BB65-RCC;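 also: growth inhibition of the cell line, measured with a cell viability assay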
# Description: SANGER: Inhibition of human BB65-RCC cell growth in a cell viability assay.
# Becker = type: functional, cell-based, Homo sapiens; conditions: Homo sapiens, Becker;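 also: growth inhibition of Becker cells, read out with a cell viability assay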
# Description: SANGER: Inhibition of human Becker cell growth in a cell viability assay.
# C2BBe1 = type: functional, cell-based, Homo sapiens; conditions: Homo sapiens, C2BBe1;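 also: growth inhibition of C2BBe1 cells, read out through a viability assay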
# Description: SANGER: Inhibition of human C2BBe1 cell growth in a cell viability assay.
# TK-10 = type: functional, cell-based, Homo sapiens; conditions: Homo sapiens, TK-10;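 also: growth inhibition of TK-10 cells, read out in a cell viability assay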
# Description: SANGER: Inhibition of human TK10 cell growth in a cell viability assay.
# U-87 MG = type: functional, cell-based, Homo sapiens, U-87MG ATCC; conditions: Homo sapiens, U-87 MG;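 also: growth inhibition of the cells measured with a viability assay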
# Description: SANGER: Inhibition of human U-87-MG cell growth in a cell viability assay.
# no-10 = type: functional, cell-based, Homo sapiens; conditions: Homo sapiens;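 also: growth inhibition of no-10 cells, read out with a cell viability assay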
# Description: SANGER: Inhibition of human no-10 cell growth in a cell viability assay.
smiles,measurement,setting,value
CN(NC(=O)CC(=O)NN(C)C(=S)c1ccccc1)C(=S)c1ccccc1 [ELESCLOMOL],IC50,D-247MG,24.7 nM
same,IC50,D283 Med,40.9 nM
same,IC50,DSH1,23.3 nM
same,IC50,DU-4475,112 nM
same,IC50,ES4,4.39 nM
same,IC50,ES5,11.8 nM
same,IC50,ETK-1,35 nM
same,IC50,EW-11,4.9 nM
same,IC50,GAK,> 200 nM
same,IC50,GT3TKB,16 nM
same,IC50,HD-MY-Z,5.91 nM
same,IC50,HL-60,66.8 nM
same,IC50,HOP-62,122 nM
same,IC50,HT-144,13 nM
same,IC50,IST-MEL1,11.3 nM
same,IC50,JAR,5.97 nM
same,IC50,KP-N-YS,79.9 nM
same,IC50,KS-1,13.8 nM
same,IC50,LB771-HNC,> 200 nM
same,IC50,LNCaP-Clone-FGC,7.73 nM
same,IC50,LS-411N,102 nM
same,IC50,MC116,> 200 nM
same,IC50,MEG-01,105 nM
same,IC50,MHH-PREB-1,11.5 nM
same,IC50,MLMA,13.6 nM
same,IC50,MMAC-SF,84.3 nM
same,IC50,NB13,23.1 nM
same,IC50,NCI-H209,> 200 nM
same,IC50,NCI-N87,> 200 nM
same,IC50,NOMO-1,> 200 nM
same,IC50,OCUB-M,195 nM
same,IC50,PSN1,3.84 nM
same,IC50,RPMI-8226,46 nM
same,IC50,SCH,> 200 nM
same,IC50,SJSA-1,12.3 nM
same,IC50,SK-PN-DW,9.02 nM
same,IC50,SNB-75,105 nM
same,IC50,SW 962,111 nM
same,IC50,TE-1,46 nM
same,IC50,8-MG-BA,9.14 nM
same,IC50,A3-KAW,86.5 nM
same,IC50,A498,46.5 nM
same,IC50,A704,27.5 nM
same,IC50,BB30-HNC,35.3 nM
same,IC50,BB49-HNC,126 nM
same,IC50,BB65-RCC,24.2 nM
same,IC50,Becker,22.3 nM
same,IC50,C2BBe1,103 nM
same,IC50,TK-10,42.3 nM
same,IC50,U-87 MG,> 200 nM
same,IC50,no-10,> 200 nM
Cc1ccc(C(=O)Nc2ccc(CN3CCN(C)CC3)c(C(F)(F)F)c2)cc1C#Cc1cnc2cccnn12 [PONATINIB],IC50,D-247MG,> 512 nM
same,IC50,D283 Med,> 512 nM
same,IC50,DSH1,> 512 nM
same,IC50,DU-4475,495 nM
same,IC50,ES4,> 512 nM
same,IC50,ES5,> 512 nM
same,IC50,ETK-1,> 512 nM
same,IC50,EW-11,> 512 nM
same,IC50,GT3TKB,> 512 nM
same,IC50,HD-MY-Z,> 512 nM
same,IC50,HL-60,> 512 nM
same,IC50,HOP-62,361 nM
same,IC50,HT-144,313 nM
same,IC50,IST-MEL1,> 512 nM
same,IC50,JAR,> 512 nM
same,IC50,KP-N-YS,> 512 nM
same,IC50,KS-1,> 512 nM
same,IC50,LB771-HNC,> 512 nM
same,IC50,LNCaP-Clone-FGC,> 512 nM
same,IC50,LS-411N,> 512 nM
same,IC50,MC116,> 512 nM
same,IC50,MEG-01,< 2 nM
same,IC50,MHH-PREB-1,> 512 nM
same,IC50,MLMA,90.6 nM
same,IC50,MMAC-SF,> 512 nM
same,IC50,NB13,> 512 nM
same,IC50,NCI-H209,> 512 nM
same,IC50,NCI-N87,> 512 nM
same,IC50,NOMO-1,> 512 nM
same,IC50,OCUB-M,> 512 nM
same,IC50,PSN1,> 512 nM
same,IC50,RPMI-8226,> 512 nM
same,IC50,SCH,> 512 nM
same,IC50,SJSA-1,> 512 nM
same,IC50,SK-PN-DW,> 512 nM
same,IC50,SNB-75,> 512 nM
same,IC50,SW 962,> 512 nM
same,IC50,TE-1,> 512 nM
same,IC50,8-MG-BA,> 512 nM
same,IC50,A3-KAW,> 512 nM
same,IC50,A498,> 512 nM
same,IC50,A704,> 512 nM
same,IC50,BB30-HNC,> 512 nM
same,IC50,BB49-HNC,> 512 nM
same,IC50,BB65-RCC,> 512 nM
same,IC50,Becker,> 512 nM
same,IC50,C2BBe1,> 512 nM
same,IC50,TK-10,> 512 nM
same,IC50,U-87 MG,> 512 nM
same,IC50,no-10,> 512 nM
CC1=C(/C=C/C(C)=C/C=C/C(C)=C/C(=O)O)C(C)(C)CCC1 [TRETINOIN],IC50,D-247MG,> 10000 nM
same,IC50,D283 Med,283 nM
same,IC50,DSH1,> 10000 nM
same,IC50,DU-4475,> 10000 nM
same,IC50,ES4,> 10000 nM
same,IC50,ES5,> 10000 nM
same,IC50,ETK-1,> 10000 nM
same,IC50,EW-11,> 10000 nM
same,IC50,GAK,> 10000 nM
same,IC50,GT3TKB,> 10000 nM
same,IC50,HD-MY-Z,> 10000 nM
same,IC50,HL-60,285 nM
same,IC50,HOP-62,> 10000 nM
same,IC50,HT-144,> 10000 nM
same,IC50,IST-MEL1,> 10000 nM
same,IC50,JAR,> 10000 nM
same,IC50,KP-N-YS,> 10000 nM
same,IC50,KS-1,> 10000 nM
same,IC50,LB771-HNC,> 10000 nM
same,IC50,LNCaP-Clone-FGC,> 10000 nM
same,IC50,LS-411N,> 10000 nM
same,IC50,MC116,> 10000 nM
same,IC50,MEG-01,9610 nM
same,IC50,MHH-PREB-1,> 10000 nM
same,IC50,MLMA,> 10000 nM
same,IC50,MMAC-SF,> 10000 nM
same,IC50,NB13,257 nM
same,IC50,NCI-H209,2520 nM
same,IC50,NCI-N87,> 10000 nM
same,IC50,NOMO-1,> 10000 nM
same,IC50,OCUB-M,> 10000 nM
same,IC50,PSN1,> 10000 nM
same,IC50,RPMI-8226,993 nM
same,IC50,SCH,> 10000 nM
same,IC50,SJSA-1,> 10000 nM
same,IC50,SK-PN-DW,> 10000 nM
same,IC50,SNB-75,> 10000 nM
same,IC50,SW 962,> 10000 nM
same,IC50,TE-1,> 10000 nM
same,IC50,8-MG-BA,> 10000 nM
same,IC50,A3-KAW,7600 nM
same,IC50,A498,> 10000 nM
same,IC50,A704,> 10000 nM
same,IC50,BB30-HNC,> 10000 nM
same,IC50,BB49-HNC,> 10000 nM
same,IC50,BB65-RCC,> 10000 nM
same,IC50,Becker,> 10000 nM
same,IC50,C2BBe1,> 10000 nM
same,IC50,TK-10,> 10000 nM
same,IC50,U-87 MG,> 10000 nM
same,IC50,no-10,> 10000 nM
NC(=O)c1ccc(N(C(N)=O)c2c(F)cccc2F)nc1-c1ccc(F)cc1F [VX-702],IC50,D-247MG,> 2000 nM
same,IC50,D283 Med,> 2000 nM
same,IC50,DSH1,> 2000 nM
same,IC50,DU-4475,> 2000 nM
same,IC50,ES4,> 2000 nM
same,IC50,ES5,> 2000 nM
same,IC50,ETK-1,> 2000 nM
same,IC50,EW-11,> 2000 nM
same,IC50,GAK,> 2000 nM
same,IC50,GT3TKB,> 2000 nM
same,IC50,HD-MY-Z,> 2000 nM
same,IC50,HL-60,> 2000 nM
same,IC50,HOP-62,15.4 nM
same,IC50,HT-144,> 2000 nM
same,IC50,IST-MEL1,> 2000 nM
same,IC50,JAR,> 2000 nM
same,IC50,KP-N-YS,> 2000 nM
same,IC50,KS-1,> 2000 nM
same,IC50,LB771-HNC,> 2000 nM
same,IC50,LNCaP-Clone-FGC,> 2000 nM
same,IC50,LS-411N,> 2000 nM
same,IC50,MC116,> 2000 nM
same,IC50,MEG-01,> 2000 nM
same,IC50,MHH-PREB-1,> 2000 nM
same,IC50,MLMA,> 2000 nM
same,IC50,MMAC-SF,> 2000 nM
same,IC50,NB13,> 2000 nM
same,IC50,NCI-H209,176 nM
same,IC50,NCI-N87,> 2000 nM
same,IC50,NOMO-1,> 2000 nM
same,IC50,OCUB-M,> 2000 nM
same,IC50,PSN1,> 2000 nM
same,IC50,RPMI-8226,> 2000 nM
same,IC50,SCH,> 2000 nM
same,IC50,SJSA-1,> 2000 nM
same,IC50,SK-PN-DW,> 2000 nM
same,IC50,SNB-75,> 2000 nM
same,IC50,SW 962,> 2000 nM
same,IC50,TE-1,> 2000 nM
same,IC50,8-MG-BA,> 2000 nM
same,IC50,A3-KAW,> 2000 nM
same,IC50,A498,> 2000 nM
same,IC50,A704,> 2000 nM
same,IC50,BB30-HNC,> 2000 nM
same,IC50,BB49-HNC,> 2000 nM
same,IC50,BB65-RCC,> 2000 nM
same,IC50,Becker,> 2000 nM
same,IC50,C2BBe1,> 2000 nM
same,IC50,TK-10,> 2000 nM
same,IC50,U-87 MG,> 2000 nM
same,IC50,no-10,> 2000 nM
